In patent US5434295A (priority 1994, dated 1995):
Like-named read-outs stand apart in the source and are kept apart here.

Tests used:
[1] = system: NMDA-induced toxicity in primary cerebral cortical cell cultures; experiment: Protection of cortical neurons in culture from NMDA-induced toxicity; assay type: cell-based; conditions: Rattus norvegicus, NMDA 1000 μM; for inhibition at 10 µM: 10 μM compound
Method: Blockage of NMDA toxicity in tissue culture: Neurons can be grown in culture and survive for several weeks. […] The ability of various compounds to prevent the morphological and metabolic changes induced by NMDA is considered a measure of their neuroprotective activity in culture.
The neuroprotective effects of the compounds of the invention were tested on neurons exposed to various excitotoxins in culture. The compounds tested included HU-259, HU-260, HU-270 and HU-271, which were all shown to have NMDA antagonist properties in mice (Example 13).
The test drugs were examined for their ability to protect neurons in culture from toxic effects of agonists of the different glutamate receptor subtypes (agonists of ionotropic and/or metabotropic glutamate receptors), e.g. NMDA, AMPA, kainate and quisqualate. The culture conditions and assay conditions were all performed as described in Eshhar et al. (NeuroReport 5, No. 3, 1993). In brief, primary cerebral cortical cell cultures were prepared from 18-20 day old rat fetuses by enzymatic dissociation. Resulting cell suspensions were plated on confluent cortical glial cell feder layer (prepared 2 weeks earlier by a similar method). Neurons were grown in MEM media containing 0.6% glucose, FUDR/Uridine mixture and N2 supplement (insulin, progesterone, putrescine, selenium and transferrin). Cells at 10 days in culture were exposed to the various toxins either alone, or in the presence of the tested compounds. All exposures were carried out at 37° C. for 20-24 hours before assessing neuronal cell damage and neuroprotectant activity. Cell viability was determined morphologically following neuron specific enolase immunostaining of cells using the ABC biotin-avidin complex method, and determined quantitatively by measuring the extent of mitochondrial activity in living cells using the XTT-based assay. XTT is reduced by mitochondrial dehydrogenase to a soluble colored formazan. The density of color formation (O.D.), which is proportional to mitochondrial activity, was measured by a plate ELISA reader. The extent of neuroprotectant activity is expressed as % of cells rescued by the drugs tested.
Neuroprotectant activity of HU-259 (10 μM)--was assessed using orphological criteria only. Morphological observations (as determined by neuron specific enolase immunostaining) clearly indicated complete neuroprotection (100%).

[2] = system: NMDA toxicity in mice; experiment: Prevention of NMDA neurotoxicity in mice (neurological scores); assay type: in vivo, mice (Balb/C); conditions: for maximum improvement of neurological scores: NMDA 60 mg/kg s.c., i.p. or i.v. pretreatment; for neurological scores/symptoms after NMDA toxicity: pretreated mice
Source text: Blockade of NMDA toxicity in mice: Subcutaneous injection of NMDA in mice results in a dose-dependent increase in the number, severity and duration of several neurological symptoms, culminating in death at the higher dose range. The symptoms include tail flicks, circling, tremor and convulsions. The ability of various compounds, when administered to mice prior to NMDA, to reduce the number and severity of these symptoms is a considered a measure of their potency in preventing NMDA behavioral toxicity in vivo.
Test drugs were administered intraperitoneally at the stipulated doses in a solution of MCT oil. Each point represents the mean scores of eight mice treated with the drug compared to the same number of control animals receiving the vehicle alone.
Test compounds were administered at a standard dose of 10 mg/kg either intraperitoneally (in MCT oil) or intravenously (in a submicronized emulsion).
Bicyclic compounds of the present invention were tested for their ability to block NMDA toxicity in mice. Balb/C mice received NMDA by subcutaneous injection at a dose of 60 mg/kg which was determined to be the LD20 dose of this substance. Thirty minutes prior to injection of the neurotoxin the animals received either (a) an intravenous injection of the test drug formulated in submicronized emulsion as described in Example 11); (b) an intraperitoneal injection of the test drug dissolved in MCT oil; (c) or the appropriate vehicle alone (control groups). The improvement rate afforded by the test drug was defined as the difference between scores of animals receiving the formulated drug and those receiving the vehicle alone. The doses tested for HU-254, HU-259 and HU-260 ranged from 5 to 30 mg/kg.
At least 6-8 mice were included per test group. The materials were tested in a masked study to preclude bias of the observer of clinical symptoms.
The behavioral scoring method (tabulated above) was used as the basic quantitative procedure for evaluating the level of NMDA or kainic acid neurotoxicity in mice. The neurological clinical status of each animal was calculated by totalling the scores of all signs that were evident throughout the study. Duration of symptoms was also taken into account.
If duration of a neurological system is up to 30 seconds, the score is s-1. Duration between 0.5-3.0 mins, the score is s. Duration longer than 3 mins, the score is s+1.

[3] = system: pyramidal cells in CA1 subfield of the hippocampus; experiment: Histopathological evaluation of hippocampus in gerbils after bilateral common carotid artery occlusion; assay type: in vivo, Mongolian gerbils; conditions: drug 30 min after occlusion
Source text: Inhibition of ischemic neuronal damage in gerbils: Temporary blockage of the blood supply to the gerbil brain by surgical ligation of the two major arteries (common carotids) results in transient global forebrain ischemia. Temporary global ischemia produces a delayed, selective degeneration of neurons in the hippocampus, a brain structure essential for memory formation. The ability of various compounds to prevent hippocampal cell loss and the attendant memory deficits is considered a measure of their potency as neuroprotectants in ischemic conditions.
Mongolian gerbils (male), 65-70 gr (Tumblebrook Farm) underwent the ischemic procedure while anaesthetised with equithisine.
Common carotid arteries (CCA) were isolated and 3-0 silk suture material was positioned loosely round them. The tips of each loop were tied together, and the suture material was buried beside the trachea. The ventral neck incision was then sutured. In the following day, they were lightly anaesthetised with ether, the neck skin wounds were opened and both CCA were occluded for 10 minutes using small artery clips. During the ischemia and until the animals recovered (regaining righting reflexes), they were maintained in a warm state (36.5°-37.5° C. rectal temperature). […]
Histopathological evaluation. […] Then, 5 μm sections were cut from the area of the dorsal hippocampus, stained with H&E and cresyl violet, and evaluated according to the following system. The number of viable pyramidal cells in the medial, middle and lateral CA1 subfield of the hippocampus were counted under 400X magnification, along 0.4 mm in both sides. […]
Statistics. Neuroclinical appearance was analyzed using Wilcoxon Rank Sum Test. The histopathological evaluation was analyzed using One-Way ANOVA followed by Duncan's Test.
Gerbils were scored for their clinical symptoms following the ischemic insult according to the system described by Rudolphi et al. (Table 4). Each animal was evaluated daily over 4 consecutive days (Day 1 being the day of CCA occlusion). […]

[4] = Cortical neurone, read-out: % of cells rescued from NMDA-induced toxicity

| Compound | inhibition at 1 µM ([1]; Cortical neurone, 1 μM compound, read-out: % of cells rescued from NMDA-induced toxicity (concentration dependence)) [%] | inhibition at 2 µM ([1]; Cortical neurone, 2 μM compound, read-out: % of cells rescued from NMDA-induced toxicity (concentration dependence)) [%] | inhibition at 5 µM ([1]; Cortical neurone, 5 μM compound, read-out: % of cells rescued from NMDA-induced toxicity (concentration dependence)) [%] | inhibition at 10 µM [1, 4] [%] | maximum improvement of neurological scores [2] | neurological scores/symptoms after NMDA toxicity [2] | histopathological damage / survival of hippocampal cells [3] | inhibition at 10 µM ([1]; morphological criteria only (neuron specific enolase immunostaining), read-out: % of cells rescued from NMDA-induced toxicity / complete neuroprotection) [%] |
| --- | --- | --- | --- | --- | --- | --- | --- | --- |
| CCCCCCC(C)(C)c1cc(OC(C)=O)c([C@H]2C=C(C(=O)NCCO)[C@H]3C[C@@H]2C3(C)C)c(OC(C)=O)c1 [HU-271] | 25 | 27 | 68 | 100 | 30-40% | decreased neurological symptoms | increased survival of hippocampal cells | – |
| CCCCCCC(C)(C)c1cc(OC(C)=O)c([C@H]2C=C(C(=O)O)[C@H]3C[C@@H]2C3(C)C)c(OC(C)=O)c1 [(+)-4-[4-DMH-2,6 diacetoxyphenyl]-2-carboxy-6,6-dimethylbicyclo[3.1.1]hept-2-en] | – | – | – | – | 30-40% | improvement in neurological scores | significantly decreased compared to control groups | 100 |
| CCCCCCC(C)(C)c1cc(OC(C)=O)c([C@H]2C=C(C(=O)N(CC)CC)[C@H]3C[C@@H]2C3(C)C)c(OC(C)=O)c1 [HU-270] | – | – | – | 0 | 30-40% | decreased neurological symptoms | increased survival of hippocampal cells | – |
